Reference: US20110071197A1, “BIS-ARYL COMPOUNDS FOR USE AS MEDICAMENTS” (priority 2008, published 2011)

Legend:
[1] = target: T1, Recombinant human LTC4 synthase (Homo sapiens, UniProt Q16873); experiment: LTC4 synthase in vitro assay (HTRF detection of LTC4); type: biochemical; settings: HTRF method; for inhibition at 10 µM: total concentration of title compound in the assay 10 μM
T1 construct: made in house; host or cells: Pichia pastoris
T1 sequence (Q16873 1-150): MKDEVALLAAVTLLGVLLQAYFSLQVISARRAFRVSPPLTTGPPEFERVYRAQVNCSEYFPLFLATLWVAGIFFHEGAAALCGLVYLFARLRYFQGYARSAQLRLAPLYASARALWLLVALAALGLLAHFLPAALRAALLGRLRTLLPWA
Summary of the method: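 Pichia-expressed recombinant human LTC4 synthase at 0.5 μg/ml total protein in PBS pH 7.4 with 5 mM GSH, preincubated 10 min at RT with inhibitor (10 μM final). LTA4 (2.5 μM final) was then added for 5 min at RT. LTC4 formed was read by HTRF.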

[2] = target: T1, Recombinant human LTC4 synthase; experiment: LTC4 synthase in vitro assay (HPLC method); type: biochemical; settings: inhibition of LTC4 synthase
Description: In the assay, LTC4 synthase catalyses the reaction where the substrate LTA4 methyl ester is converted to the corresponding LTC4 methyl ester. Recombinant human LTC4 synthase is expressed in Piccia pastoralis and the purified enzyme is dissolved in 25 mM Tris-buffer pH 7.8 and stored at −80° C. The assay is performed in phosphate buffered saline (PBS) pH 7.4, supplemented with 5 mM glutathione (GSH). The reaction is terminated by addition of acetonitrile/MeOH/acetic acid (50/50/1). The assay is performed at rt in 96-well plates. Analysis of the formed LTC4 methyl ester is performed with reversed phase HPLC (Waters 2795 utilizing an Onyx Monolithic C18 column). The mobile phase consists of acetonitrile/MeOH/H2O (32.5/30/37.5) with 1% acetic acid pH adjusted with NH3 to pH 5.6, and absorbance measured at 280 nm with a Waters 2487 UV-detector.
The following is added chronologically to each well: • 1. 50 μl assay buffer, PBS with 5 mM GSH. • 2. 0.5 μl inhibitor in DMSO (final conc. 1 nM-10 μM). • 3. 2 μl LTC4 synthase in PBS. The total protein concentration in this solution is 0.025 mg/ml. Incubation of the plate at room temperature for 10 minutes. • 4. 1-1.5 μl LTA4 methyl ester (final conc. 10 μM). Incubation of the plate at rt for 1 min. • 5. 50 μl stop solution.
80 μl of the incubation mixture is analysed with HPLC.

| inhibition at 10 µM [1] [%] | IC50 [2] [nM] | inhibition at 3 µM ([1]; compound concentration 3 μM) [%] | SMILES |
| --- | --- | --- | --- |
| 72 | 5110 | – | CC(C)Oc1ccc(C(=O)Nc2ccc(Oc3ccc(NC(=O)c4ccccc4)cc3)cc2/C=C/C(=O)O)cc1 [Example 22:3, (E)-3-[5-(4-Benzoylaminophenoxy)-2-(4-isopropoxy-benzoylamino)-phenyl]acrylic acid] |
| 98 | 629 | – | CCCCOc1ccc(S(=O)(=O)Nc2ccc(Oc3cccc(Oc4ccc(F)c(F)c4)c3)cc2C(=O)O)cc1 [28:1] |
| 97 | 802 | – | CC(C)(C)c1ccc(C(=O)Nc2cccc(Oc3ccc(NS(=O)(=O)c4ccc(C(C)(C)C)cc4)c(C(=O)O)c3)c2)cc1 [29:1] |
| 97 | 845 | – | O=C(O)c1cc(Oc2ccc(Nc3ccc(F)cc3)c(C(=O)O)c2)ccc1Nc1ccc(F)cc1 [1:2, 3,3′-oxybis[6-(4-fluorophenyl-amino)benzoic acid]] |
| – | 449 | 80 | O=C(Nc1ccc(Sc2ccc(NC(=O)Nc3ccc(C(F)(F)F)cc3)c(C(=O)O)c2)cc1)Nc1ccc(C(F)(F)F)cc1 [14:6, 2-[3-(4-trifluoromethyl-phenyl)ureido]-5-{4-[3-(4-trifluoromethylphenyl)-ureido]phenylsulfanyl}-benzoic acid] |

| SMILES | inhibition at 10 µM [1] [%] | IC50 [2] [nM] | inhibition at 3 µM ([1]; compound concentration 3 μM) [%] |
| --- | --- | --- | --- |
| CCCCOc1ccc(S(=O)(=O)Nc2ccc(Oc3cccc(S(=O)(=O)Nc4ccc(Cl)cc4)c3)cc2C(=O)O)cc1 [19:1, 2-(4-Butoxy-benzenesulfonylamino)-5-[3-(4-chloro-phenylsufamoyl)-phenoxy]-benzoic acid] | 100 | 1160 | – |
